Results reported in patent US20260335468A1, “MOLECULAR RADIOAFTERGLOW PROBES FOR CANCER RADIODYNAMIC THERANOSTICS” (NANYANG TECHNOLOGICAL UNIVERSITY, priority 2023, published 2026).

How the values were obtained:
[1] = O2·^− detection with DHR123 upon X-ray irradiation; type: physicochemical; settings: elevated radiation dosage
Description: To study other ROS generation, fluorescence sensors DHR123 (for O2·^− detection) and HPF (for ·OH detection) were used. For O2·^− detection, DHR123 (10 PM) was added to a solution of IDPASu (10 M) in PBS (0.01 M pH 7.4, 50% DMSO), followed by X-ray irradiation at different doses of 5 mGy (250 μGy s^−1 for 20 s) and 2 Gy (100 mGy s^1 for 20 s). The fluorescence changes in DHR123 were recorded at λex of 505 nm and λem of 534 nm. For ·OH detection, HPF ([…]) was added in a solution of IDPASu (10 M) in PBS (0.01 M, pH 7.4, 50% DMF), followed by X-ray irradiation at different doses, namely, 5 mGy (250 μGy s^−1 for 20 s) and 2 Gy (100 mGy s^−1 for 20 s). The fluorescence changes in HPF were collected at ex of 450 nm and λem of 515 nm. The ROS production was calculated by the corresponding standard curve.

U87MG subcutaneous tumor = experiment: X-ray-induced afterglow in U87MG subcutaneous tumor-bearing mice; type: in vivo, Balb/c nude mice; settings: local injection
Description: For in vivo RAI by IDPASu, subcutaneous U87-tumour-bearing mice were intratumorally injected with IDPASu(100 μM, […]) solubilized with P-cyclodextrin (100 μM). Each group has three mice. At different post-injection timepoints (0, 0.5, 1.0, 2.0, 4.0, 6.0, 8.0, 12.0, 16.0 and 24.0 h), the tumours were irradiated with X-rays (5 mGy, 250 μGy s^−1 for 20 s), followed by radio afterglow detection using the IVIS imaging system under the bioluminescence mode with an open filter and acquisition time of 120 s. Tumour-free areas were protected by a 3.4-mm-thick lead shield with a notch. […] Radio afterglow signals from brain tumours were recorded with the IVIS imaging system under the bioluminescence mode with an open filter and acquisition time of 120 s. […] The tumour sizes were calculated as per the above-mentioned equation, showing ~0 mm^3 for 1 day post-implantation, 6 mm^3 (tumour diameter, 2.3 mm) for 5 days post-implantation, 22 mm^3 for 10 days post-implantation, 43 mm^3 for 20 days post-implantation and 77 mm^3 for 30 days post-implantation. At 15 min post-intraperitoneal injection of aqueous d-luciferin sodium salt (500 μmol kg^−1) solution into mice with different tumour sizes, the bioluminescence signals from the tumour sites were recorded with the IVIS imaging system under the bioluminescence mode with an open filter and automatic acquisition time. […]

U87 cells = experiment: Cell viability of U87 cells with IDPASu (Cell Counting Kit-8); type: cell-based, human
Description: (§1) All the cells were purchased from the American Type Culture Collection, including CatB-negative cells (mouse embryonic fibroblasts 3T3 cells, RAW 264.7, 293-T and human monocytic THP-1 cells) and CatB-positive cells (human U87 glioblastoma cells, U87-luciferase cells, A549 lung epithelial cells and 4T1 and melanoma B16-F10). All the cells were cultured
(§2) in Dulbecco's modified Eagle medium (Gibco) or RPMI 1640 medium containing 10.0% foetal bovine serum (Gibco) and 0.1% ciprofloxacin in a humidified atmosphere containing 5.0% CO2 and 95.0% air at 37° C. To study the cell viability of IDPASu, U87 cells (1×10^4 per well) were seeded on 96-well plates and incubated for 24 h. IDPASu at different concentrations (0, 2.5, 5.0, 10.0, 25.0, 50.0 and 100.0 μM) were added to the U87 cell medium for 12 h incubation. After incubation, 96-well plates were covered with chicken breast tissues with different thicknesses (0, 5, 8 and 15 cm), followed by X-ray irradiation. The X-ray setup was optimized to ensure the cells in all the wells received similar dose of X-ray irradiation (2 Gy) before chicken breast tissue coverage (0 cm). After irradiation, the cells were further incubated for 12 h, followed by the colorimetric Cell Counting Kit-8 assay. Briefly, Cell Counting Kit-8 solution (10 l, Dojindo Molecular Technologies) was added into the cell medium (100 l) for 2 h incubation, and the absorbance of medium at 450 nm was recorded using a microplate reader (ReadMax 1900). The cells without IDPASu incubation and X-ray irradiation were set as control. The cell viability (%) was calculated by the absorbance of treated cells over that of the control cells. To test the cell viability of activatable MRAP, U87 and 3T3 cells (1×10^4 per well) were seeded on 96-well plates and incubated for 24 h. The inhibitor group was pre-treated with a CatB inhibitor (CA-074, 1 mM) for 10 h incubation. MRAP at different concentrations (0, 2.5, 5.0, 10.0, 25.0, 50.0 and 100.0 µM) were added to the U87 and 3T3 cell medium for 12 h incubation. […]

[2] = as above; type: cell-based, human; settings: human, u87 cells; 100 μM; read-out: cell viability without X-ray
Description: as §1, §2

## COC(=C1C2CC3CC(C2)CC1C3)c1cc(O)c(I)cc1/C=C/C1=CC(=C(C#N)C#N)c2ccccc2S1 [IDPASu]
[1]
  O2·^− generation: only minimal O2·^− could be generated
U87MG subcutaneous tumor
  Intensity per dose per mouse: 1.27 × 10^6 (p/s/cm2/sr)/(μg)
U87 cells; 100 μM, X-ray 2 Gy, 100 mGy s^−1 for 20 s, no tissue
  cell viability under X-ray irradiation: 1.4%
U87 cells; X-ray through 15 cm chicken breast tissue
  cell viability under X-ray irradiation at tissue depth of 15 cm: 31.9%
[2]
  viability at 24 h, 100 µM: 91%
